Where a SMILES comes first, the peptide text is derived from it. [ ]: non-standard residue; d: D form. The star is where a group is joined. X14 = CC(C)(COC(=O)*)SSc1nc2cc([N+](=O)[O-])ccc2[nH]1; X6 = CC(C)(COC(=O)*)SSc1nc2c([N+](=O)[O-])cccc2[nH]1; Dolaproine = CO[C@@H]([C@@H]1CCCN1)[C@@H](C)C(=O)O; X22 = CC(C)(COC(=O)*)SSc1nc2cccc(C(=O)O)c2[nH]1; Dil = CC[C@H](C)[C@H](NC)[C@@H](CC(=O)O)OC; X4 = CC(C)(COC(=O)*)SSc1nc2ncnc(N)c2[nH]1; X10 = CC(C)(COC(=O)*)SSc1nc2ncncc2[nH]1; X12 = Cn1c(C(=O)O)cnc1SSC(C)(C)COC(=O)*; X13 = CC(C)(COC(=O)*)SSc1nc2cnccc2[nH]1; X17 = Cn1c(SSC(C)(C)COC(=O)*)nc2ccccc21; X5 = CC(C)(COC(=O)*)SSc1nc2ncccc2[nH]1; X8 = CC(C)(COC(=O)*)SSc1nc2nccnc2[nH]1; X2 = C[C@@H](N*)[C@@H](O)c1ccccc1; X21 = CC(C)(COC(=O)*)SSc1ncc[nH]1; X9 = CC(C)(COC(=O)*)SSc1nnn[nH]1; X20 = Cn1cnnc1SSC(C)(C)COC(=O)*; X1 = Cn1nnnc1SSC(C)(C)COC(=O)*; X18 = CC(C)(COC(=O)*)SSC(=N)N; NMeV = CN[C@H](C(=O)O)C(C)C
What was measured:
[1] = biological target: human serum albumin Cys-34 (Homo sapiens, UniProt P02768); experiment: Conjugation of activated disulfide-MMAE molecules to human serum albumin (Conjugate Ratio, LC/MS); conditions: disulfide MMAE compound at 10 molar equivalents relative to HSA, 75 mM Tris pH 8.5, ~16 hours at room temperature
Chain of human serum albumin Cys-34 (P02768 25-609): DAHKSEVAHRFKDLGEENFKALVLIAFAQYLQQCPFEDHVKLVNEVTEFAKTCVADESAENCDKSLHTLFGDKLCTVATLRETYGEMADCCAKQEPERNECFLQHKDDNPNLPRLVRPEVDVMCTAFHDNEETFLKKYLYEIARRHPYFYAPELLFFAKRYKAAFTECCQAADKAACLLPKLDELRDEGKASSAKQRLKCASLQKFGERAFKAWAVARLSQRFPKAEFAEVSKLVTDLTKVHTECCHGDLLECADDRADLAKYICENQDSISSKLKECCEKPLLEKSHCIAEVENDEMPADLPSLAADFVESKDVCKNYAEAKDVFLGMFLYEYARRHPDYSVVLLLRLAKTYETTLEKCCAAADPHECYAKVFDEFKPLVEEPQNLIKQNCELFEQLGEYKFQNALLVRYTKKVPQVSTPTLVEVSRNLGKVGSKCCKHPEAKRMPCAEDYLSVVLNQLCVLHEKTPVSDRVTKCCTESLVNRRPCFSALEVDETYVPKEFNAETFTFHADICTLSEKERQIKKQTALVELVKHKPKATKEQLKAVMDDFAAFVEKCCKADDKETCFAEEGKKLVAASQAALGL
Experimental: In a first evaluation, MMAE was conjugated to human serum albumin (HSA). […] This Cys residue is blocked as a mixed disulfide with Cys or glutathione, preventing complete conjugation of other molecules to this residue. […] Conjugate reactions were analyzed by LC/MS. The extent of the expected MMAE-HSA conjugate formed during the reaction is represented by the “Conjugate Ratio”, measured by dividing the abundance of the MS peak for the MMAE-HSA conjugate by the sum total abundance of all peaks observed. The ideal value for the Conjugate Ratio is 1.0. The results are reported in table 31 below wherein the wavy line for the leaving group represents the point of attachment to the disulfide bond, and “HSA CR” refers to human serum albumin conjugate ratio.

[2] = biological target: T1, penetratin (AntP) peptide (Drosophila melanogaster, UniProt P02833); experiment: Conjugation of activated disulfide-MMAE molecules to penetratin (AntP) peptide (% Product); conditions: peptide 25 uM, disulfide MMAE 5 equivalents, 75 mM Tris pH 8.5 and 10% DMF, ~16 hours at room temperature, UV peak area
T1 construct: C-terminal amide (CONH2); made in house; host or cells: chemical synthesis (Fmoc solid-phase peptide synthesis)
Experimental: In a second evaluation, MMAE was conjugated to penetratin (AntP) peptide. The AntP peptide, with sequence H2N-[…]-CONH2 (SEQ ID NO:1) bearing a free Cys thiol at the C-terminus, was synthesized via standard Fmoc solid-phase peptide synthesis methods. This peptide was conjugated at a concentration of 25 uM to disulfide MMAE molecules with varying leaving groups (5 equivalents) in a buffered solution composed of 75 mM Tris, pH 8.5 and 10% DMF for ˜16 hours at room temperature. Extent of the reaction was measured by dividing the integrated area for the UV peak of the MMAE-AntP conjugate by the sum of all peaks (“% Product”). The ideal value for % Product is 100%. The results are reported in table 31 below wherein the wavy line for the leaving group represent the point of attachment to the disulfide bond, and “AntP % P” refers to penetratin (AntP) peptide % product.

[3] = In vitro disulfide cleavage and immolation by incubation with cysteine or glutathione (LC/MS); format: physicochemical; conditions: pH 7.0, 37° C.
Experimental: In a first phase of the experiment, disulfide cleavage and immolation by incubation with cysteine and glutathione—with the thiol concentrations mimic those in plasma and cancer cells—was investigated using unconjugated small molecule model systems with para-nitro-pyridyl disulfide-containing linker drug analogs 1, 2 and 11 below. In particular, cleavage and immolation was evaluated in vitro by incubation at […] with cysteine ([…] or 200 μM) or glutathione (GSH, 4 mM) in 100 mM Tris buffer pH 7.0 containing 5% methanol at 37° C. Aliquots were taken at specified time points and the samples were analyzed by LC/MS on Sciex TripleTOF 5600 on a Hypersil Gold C18 column (100×2.1, […], Thermo Scientific). The column was eluted by a gradient of buffer A (0.1% formic acid in 10 mM ammonium acetate) to buffer B (0.1% formic acid in 10 mM ammonium acetate in 90% acetonitrile), 5% B 0-0.5 min, 5-25% B 0.5-8 min, 25-75% B 8-13 min, and 75-95% B 13-13.5 min, 95% B 13.5-14.5 min, 95-5% B 14.5-15 min at 0.4 mL/min. Under these conditions, para-nitropyridyl thiol was eluted at 5.3 min. All products (compounds 1, 2, 11, 3a, 3b, 4a, 4b, 12a, 12 b, 6, 7, 13 and 8) were separated and characterized by LC/MS/MS in a positive ESI ion mode. All analytes had the protonated molecular MH^+ as the major species with little source fragmentation. Full scan accurate mass peak areas were used to estimate relative abundance of each component and the disappearance of 1, 2, and 11 estimated relative full scan peak areas was consistent with that estimated based on the relative abundance compared to time 0 by MS or UV. The results are reported in Table 15 below and the analytical results are presented in Table 16 below where “Cmpd” refers to compound, “RT” refers to retention time in minutes, and “Calc. Mass” refers to calculated mass. The relative abundance of disulfide cleavage and immolation products over time were evaluated and are disclosed in FIGS. 12A to 12C, 13A to 13C, 14A to 14C and 15A to 15C where the products were monitored by LC/MS from incubations of linker drugs 1, 2, and 11 at pH 7.0 and 37° C. in the presence of: 0.2 mM cysteine (FIGS. 12A, 12B and 12C); 0.03 mM cysteine (FIGS. 13A, 13B and 13C); 4 mM glutathione (FIGS. 14A, 14B and 14C); and 0.03 mM glutathione (FIGS. 15A, 15B and 15C). In FIGS. 12A to 12C, 13A to 13C, 14A to 14C and 15A to 15C, compound reference numbers 1, 2, 3a, 3b, 4a, 4b, 6, 7, 8, 11, 12a, 12b and 13 correspond to the structures below.

Row | Structure (SMILES) | HAS CR (HSA Conjugation Ratio) [1] | AntP % P (penetratin (AntP) peptide % product) [2] | further results
1 | CC[C@H](C)[C@@H]([C@@H](CC(=O)N1CCC[C@H]1[C@H](OC)[C@@H](C)C(=O)N[C@H](C)[C@@H](O)c1ccccc1)OC)N(C)C(=O)[C@@H](NC(=O)[C@H](C(C)C)N(C)C(=O)OCC(C)(C)SSc1ncc(C(=O)O)n1C)C(C)C (X12-[NMeV]V[Dil][Dolaproine]-X2) | 0.55 | 4% | –
2 | CC[C@H](C)[C@@H]([C@@H](CC(=O)N1CCC[C@H]1[C@H](OC)[C@@H](C)C(=O)N[C@H](C)[C@@H](O)c1ccccc1)OC)N(C)C(=O)[C@@H](NC(=O)[C@H](C(C)C)N(C)C(=O)OCC(C)(C)SSc1nc2nccnc2[nH]1)C(C)C (X8-[NMeV]V[Dil][Dolaproine]-X2) | 0.63 | 36% | –
3 | CC[C@H](C)[C@@H]([C@@H](CC(=O)N1CCC[C@H]1[C@H](OC)[C@@H](C)C(=O)N[C@H](C)[C@@H](O)c1ccccc1)OC)N(C)C(=O)[C@@H](NC(=O)[C@H](C(C)C)N(C)C(=O)OCC(C)(C)SSc1ncc[nH]1)C(C)C (X21-[NMeV]V[Dil][Dolaproine]-X2) | 0.99 | 1.7% | –
4 | CC[C@H](C)[C@@H]([C@@H](CC(=O)N1CCC[C@H]1[C@H](OC)[C@@H](C)C(=O)N[C@H](C)[C@@H](O)c1ccccc1)OC)N(C)C(=O)[C@@H](NC(=O)[C@H](C(C)C)N(C)C(=O)OCC(C)(C)SSc1nc2cnccc2[nH]1)C(C)C (X13-[NMeV]V[Dil][Dolaproine]-X2) | 0.86 | 26% | –
5 | CC[C@H](C)[C@@H]([C@@H](CC(=O)N1CCC[C@H]1[C@H](OC)[C@@H](C)C(=O)N[C@H](C)[C@@H](O)c1ccccc1)OC)N(C)C(=O)[C@@H](NC(=O)[C@H](C(C)C)N(C)C(=O)OCC(C)(C)SSc1nnn[nH]1)C(C)C (X9-[NMeV]V[Dil][Dolaproine]-X2) | 0.09 | 1.9% | –
6 | CC[C@H](C)[C@@H]([C@@H](CC(=O)N1CCC[C@H]1[C@H](OC)[C@@H](C)C(=O)N[C@H](C)[C@@H](O)c1ccccc1)OC)N(C)C(=O)[C@@H](NC(=O)[C@H](C(C)C)N(C)C(=O)OCC(C)(C)SSc1nc2c([N+](=O)[O-])cccc2[nH]1)C(C)C (X6-[NMeV]V[Dil][Dolaproine]-X2) | 0.65 | 26% | –
7 | CC[C@H](C)[C@@H]([C@@H](CC(=O)N1CCC[C@H]1[C@H](OC)[C@@H](C)C(=O)N[C@H](C)[C@@H](O)c1ccccc1)OC)N(C)C(=O)[C@@H](NC(=O)[C@H](C(C)C)N(C)C(=O)OCC(C)(C)SSc1nc2ncccc2[nH]1)C(C)C (X5-[NMeV]V[Dil][Dolaproine]-X2) | 0.84 | 12% | –
8 | CC[C@H](C)[C@@H]([C@@H](CC(=O)N1CCC[C@H]1[C@H](OC)[C@@H](C)C(=O)N[C@H](C)[C@@H](O)c1ccccc1)OC)N(C)C(=O)[C@@H](NC(=O)[C@H](C(C)C)N(C)C(=O)OCC(C)(C)SSc1nc2cc([N+](=O)[O-])ccc2[nH]1)C(C)C (X14-[NMeV]V[Dil][Dolaproine]-X2) | 0.69 | 26% | –
9 | CC[C@H](C)[C@@H]([C@@H](CC(=O)N1CCC[C@H]1[C@H](OC)[C@@H](C)C(=O)N[C@H](C)[C@@H](O)c1ccccc1)OC)N(C)C(=O)[C@@H](NC(=O)[C@H](C(C)C)N(C)C(=O)OCC(C)(C)SSC(=N)N)C(C)C (X18-[NMeV]V[Dil][Dolaproine]-X2) | 0.98 | 90% | –
10 | CC[C@H](C)[C@@H]([C@@H](CC(=O)N1CCC[C@H]1[C@H](OC)[C@@H](C)C(=O)N[C@H](C)[C@@H](O)c1ccccc1)OC)N(C)C(=O)[C@@H](NC(=O)[C@H](C(C)C)N(C)C(=O)OCC(C)(C)SSc1nc2ncnc(N)c2[nH]1)C(C)C (X4-[NMeV]V[Dil][Dolaproine]-X2) | 0.23 | 21% | –
11 | CC[C@H](C)[C@@H]([C@@H](CC(=O)N1CCC[C@H]1[C@H](OC)[C@@H](C)C(=O)N[C@H](C)[C@@H](O)c1ccccc1)OC)N(C)C(=O)[C@@H](NC(=O)[C@H](C(C)C)N(C)C(=O)OCC(C)(C)SSc1nc2cccc(C(=O)O)c2[nH]1)C(C)C (X22-[NMeV]V[Dil][Dolaproine]-X2) | 0.34 | 25% | –
12 | CC[C@H](C)[C@@H]([C@@H](CC(=O)N1CCC[C@H]1[C@H](OC)[C@@H](C)C(=O)N[C@H](C)[C@@H](O)c1ccccc1)OC)N(C)C(=O)[C@@H](NC(=O)[C@H](C(C)C)N(C)C(=O)OCC(C)(C)SSc1nc2ccccc2n1C)C(C)C (X17-[NMeV]V[Dil][Dolaproine]-X2) | 0.87 | 7.5% | –
13 | CC[C@H](C)[C@@H]([C@@H](CC(=O)N1CCC[C@H]1[C@H](OC)[C@@H](C)C(=O)N[C@H](C)[C@@H](O)c1ccccc1)OC)N(C)C(=O)[C@@H](NC(=O)[C@H](C(C)C)N(C)C(=O)OCC(C)(C)SSc1nnnn1C)C(C)C (X1-[NMeV]V[Dil][Dolaproine]-X2) | 0.86 | 32% | –
14 | CC[C@H](C)[C@@H]([C@@H](CC(=O)N1CCC[C@H]1[C@H](OC)[C@@H](C)C(=O)N[C@H](C)[C@@H](O)c1ccccc1)OC)N(C)C(=O)[C@@H](NC(=O)[C@H](C(C)C)N(C)C(=O)OCC(C)(C)SSc1nncn1C)C(C)C (X20-[NMeV]V[Dil][Dolaproine]-X2) | 0.66 | 17% | –
15 | CC[C@H](C)[C@@H]([C@@H](CC(=O)N1CCC[C@H]1[C@H](OC)[C@@H](C)C(=O)N[C@H](C)[C@@H](O)c1ccccc1)OC)N(C)C(=O)[C@@H](NC(=O)[C@H](C(C)C)N(C)C(=O)OCC(C)(C)SSc1nc2ncncc2[nH]1)C(C)C (X10-[NMeV]V[Dil][Dolaproine]-X2) | 0.6 | 34% | –
16 | C=C1C[C@H]2C=Nc3cc(OCCCCCOc4cc5c(cc4OC)C(=O)N4CC(=C)C[C@H]4C(O)N5C(=O)OCC4(SSc5ccc([N+](=O)[O-])cn5)CC4)c(OC)cc3C(=O)N2C1 (stereo partly drawn) [Compound 2] | – | – | Percentage of all products ([3]; 30 μM cysteine, 1 h): 21.1%; Percentage of all products ([3]; 30 μM cysteine, 4 h): 19.1%; Percentage of all products ([3]; 30 μM cysteine, 24 h): 12.0%; Percentage of all products ([3]; 200 μM cysteine, 1 h): 16.1%; Percentage of all products ([3]; 200 μM cysteine, 4 h): 10.8%; Percentage of all products ([3]; 200 μM cysteine, 24 h): 7.0%; Percentage of all products ([3]; 4 mM GSH, 1 h): 17.9%; Percentage of all products ([3]; 4 mM GSH, 4 h): 9.0%; Percentage of all products ([3]; 4 mM GSH, 24 h): 4.3%

From US10729738B2, “Hindered disulfide drug conjugates” (priority 2015, dated 2020)
